Measurements published in the OligoGym collection.
Oligonucleotides are written 5' to 3', each unit as a sugar letter and its base; * is a phosphorothioate linkage, no mark a phosphodiester; rarer units and linkages stand in square brackets, end groups in braces. Plain capitals give the bases only. d = 2'-deoxy (DNA); r = 2'-OH (RNA)

Each substance was assayed against UBE2V1 (assay: reporter assay of Huesken 2005). Settings: siRNA.
Also: test concentration or dose not given here.

Substance	normalised inhibition (eCFP-eYFP dual reporter) [%]
sense rGrCrCrUrArArUrGrArUrGrUrCrUrArArArGrAdTdT / antisense rUrCrUrUrUrArGrArCrArUrCrArUrUrArGrGrCdGdC	94.5
sense rGrCrCrUrCrCrArArGrArArCrArArUrUrUrArUdTdT / antisense rArUrArArArUrUrGrUrUrCrUrUrGrGrArGrGrCdCdC	76.5
sense rGrGrArGrUrArArArArGrUrCrCrCrUrCrGrCrAdTdT / antisense rUrGrCrGrArGrGrGrArCrUrUrUrUrArCrUrCrCdTdT	88.7
sense rGrGrArUrGrArUrArArUrUrGrGrGrCrCrUrCrCdTdT / antisense rGrGrArGrGrCrCrCrArArUrUrArUrCrArUrCrCdCdT	70.5
sense rGrGrGrUrCrUrArGrArArGrArUrGrArCrGrArAdTdT / antisense rUrUrCrGrUrCrArUrCrUrUrCrUrArGrArCrCrCdCdA	96.3
sense rGrGrUrGrGrArCrCrCrArArGrArGrCrCrArUrAdTdT / antisense rUrArUrGrGrCrUrCrUrUrGrGrGrUrCrCrArCrCdAdC	84.1
sense rGrUrArGrGrArGrArUrGrGrCrArCrArGrUrUrAdTdT / antisense rUrArArCrUrGrUrGrCrCrArUrCrUrCrCrUrArCdTdC	88.8
sense rGrUrCrUrArArArGrArArArArUrArUrGrArArAdTdT / antisense rUrUrUrCrArUrArUrUrUrUrCrUrUrUrArGrArCdAdT	75.3
sense rGrUrCrUrArGrArArGrArUrGrArCrGrArArGrAdTdT / antisense rUrCrUrUrCrGrUrCrArUrCrUrUrCrUrArGrArCdCdC	92
sense rUrArCrArArGrArUrGrGrArCrArGrGrGrArUrGdTdT / antisense rCrArUrCrCrCrUrGrUrCrCrArUrCrUrUrGrUrAdAdG	52.7
sense rUrArGrCrArArArArUrGrGrCrArGrArArUrUrCdTdT / antisense rGrArArUrUrCrUrGrCrCrArUrUrUrUrGrCrUrAdGdC	63
sense rUrArGrCrUrGrGrGrGrUrCrUrArGrArArGrArUdTdT / antisense rArUrCrUrUrCrUrArGrArCrCrCrCrArGrCrUrAdAdC	82.8
sense rUrArUrArGrCrArUrCrArArArGrUrUrGrUrCrCdTdT / antisense rGrGrArCrArArCrUrUrUrGrArUrGrCrUrArUrAdTdG	47
sense rUrCrArArArGrUrUrGrUrCrCrUrGrCrArArGrAdTdT / antisense rUrCrUrUrGrCrArGrGrArCrArArCrUrUrUrGrAdTdG	89.8
sense rUrCrArUrArUrArGrCrArUrCrArArArGrUrUrGdTdT / antisense rCrArArCrUrUrUrGrArUrGrCrUrArUrArUrGrAdAdT	49
sense rUrCrCrCrUrCrArGrCrCrGrCrCrCrGrArArGrGdTdT / antisense rCrCrUrUrCrGrGrGrCrGrGrCrUrGrArGrGrGrAdGdT	46.6
sense rUrCrGrCrArArUrUrUrCrCrGrArCrUrGrUrUrGdTdT / antisense rCrArArCrArGrUrCrGrGrArArArUrUrGrCrGrAdGdG	85.6
sense rUrCrGrGrCrGrCrCrUrArArUrGrArUrGrUrCrUdTdT / antisense rArGrArCrArUrCrArUrUrArGrGrCrGrCrCrGrAdAdG	78.8
sense rUrCrUrArGrArArGrArUrGrArCrGrArArGrArCdTdT / antisense rGrUrCrUrUrCrGrUrCrArUrCrUrUrCrUrArGrAdCdC	58
sense rUrGrArArCrCrUrArGrArArArArUrUrUrCrArCdTdT / antisense rGrUrGrArArArUrUrUrUrCrUrArGrGrUrUrCrAdAdG	43
